Test system: arylamidase activity
Experiment: Inhibitory effect of 5NSA on arylamidase activity (initial hydrolytic rates with and without added 5NSA)
Type: biochemical
Source text: At 10 mmol/liter, 50% inhibition of all enzyme activities occurs. Interfering side reactions with 5NSA may occur. The compound reacts with both aliphatic and aromatic amine groups to form Schiff-Base complexes. Particularly susceptible are proteins containing lysine and glutamine. […] Cell proteins react at higher concentrations, i.e., above 1 mmol/liter of 5NSA, to form a blue-green fluorescence, which may account for as much as 15% of the cellular fluorescence at 530 nm. Use of appropriate filters to block out green fluorescence will block out the nonspecific cell protein reaction with 5NSA.

[1] = 1 mmol/liter 5NSA, initial hydrolytic rate with vs without 5NSA

Effect on Carbobenzoxy-arg-arg-4M2NA hydrolysis [1]: not affected significantly | Effect on Lys-Ala-4M2NA activity [1]: not affected significantly | inhibition of all enzyme activities (10 mmol/liter 5NSA): 50%
SMILES: O=Cc1cc([N+](=O)[O-])ccc1O [5NSA, 5-nitrosalicylaldehyde]
